Results on 50 compounds are retold here after patent US11591331B2, “PARP1 inhibitors and uses thereof” (Xinthera, Inc., priority 2021, dated 2023).

The test system of experiment [1] is MDA-MB-436 (mutated BRCA1) cell lines. In words: Cell growth inhibition assay (CellTiter-Glo cell viability, 7 days). Type of experiment: cell-based. The note with it: Homo sapiens, 168 h, MDA-MB-436 cells.
Another experiment has as its system DLD-1 BRCA2(−/−). The experiment is described as above. Type of experiment: cell-based. Conditions: Homo sapiens, 168 h, DLD-1 BRCA2(-/-) cells.

Take `C#Cc1cc2ncc(CN3CCN(c4ccc(C(=O)NC)nc4)CC3)cc2[nH]c1=O` [Example 135]: the EC50 in experiment [1] turned out to be 24 nM; in the experiment with DLD-1 BRCA2(−/−) it was 15 nM.
`CCc1cc2ncc(CN3CCN(c4ccc(-n5cccn5)nc4)CC3)cc2[nH]c1=O` [Example 92]: the EC50 came out at 10 nM in experiment [1] and 11 nM with DLD-1 BRCA2(−/−).
`Cc1c(Cl)c(=O)[nH]c2cc(CN3CCN(c4ccc(C(=O)NC5CC5)nc4)CC3)cnc12` [Example 154]: the EC50 in experiment [1] was found to be 1.6 nM; with DLD-1 BRCA2(−/−), 3 nM.
Turning to `CCc1cc2ncc(CN3CCN(c4ccc(-c5ncc[nH]5)nc4)CC3)cc2[nH]c1=O` [Example 19, 3-ethyl-7-({4-[6-(1H-imidazol-2-yl)pyridin-3-yl]piperazin-1-yl}methyl)-1H-1,5-naphthyridin-2-one], the EC50 in experiment [1] is 1.8 nM; in the experiment on DLD-1 BRCA2(−/−), 3.7 nM.
The matching figures for `C#Cc1ccc(N2CCN(Cc3cnc4cc(CC)c(=O)[nH]c4c3)CC2)nc1` [Example 83]: 1.4 nM and 1.5 nM.
Consider `[2H]C([2H])([2H])NC(=O)c1ccc(N2CCN(Cc3cnc4cc(CC)c(=O)[nH]c4c3)[C@@H]3C[C@@H]32)cn1` (single isomer, unassigned) [Example 96], for which the EC50 in experiment [1] amounted to 1.7 nM; in the experiment on DLD-1 BRCA2(−/−), 2.9 nM.
The matching figures for `CCc1cc2ncc(CN3CCN(c4cnc(C(=O)NC)c(F)c4)[C@H]4C[C@H]43)cc2[nH]c1=O` (single isomer, unassigned) [Example 69]: 4.4 nM and 7.3 nM.
The matching figures for `CCc1cc2ncc(CN3CCN(c4cnc(C(=O)NC5CC5)c(F)c4)CC3)cc2[nH]c1=O` [Example 105]: 1.8 nM and 3.2 nM.
The matching figures for `CCc1cc2ncc(CN3CCN(c4ccc(C(=O)NC5COC5)nc4)CC3)cc2[nH]c1=O` [Example 46]: 1.2 nM and 3.7 nM.
As to `CNC(=O)c1ccc(N2CCN(Cc3cnc4c(Cl)c(Br)c(=O)[nH]c4c3)CC2)cn1` [Example 159], the EC50 in experiment [1] turned out to be 0.72 nM; in the experiment with DLD-1 BRCA2(−/−) it was 1.7 nM.
The like results for `CNC(=O)c1ccc2c(n1)OC[C@@H]1CN(Cc3cnc4cc(C5CC5)c(=O)[nH]c4c3)CCN21` [Example 78] were, in that order, 1.8 nM and 2.8 nM.
Turning to `O=C(NC1CC1)c1ccc(N2CCN(Cc3cnc4cc(Cl)c(=O)[nH]c4c3)CC2)cn1` [Example 147], the EC50 in experiment [1] is 1.3 nM; in the experiment on DLD-1 BRCA2(−/−), 2.9 nM.
The matching figures for `O=C(NC1CC1)c1ccc(N2CCN(Cc3cnc4cc(C5CC5)c(=O)[nH]c4c3)CC2)c(F)n1` [Example 158]: 1 nM and 2.1 nM.
The like results for `Cc1cc2ncc(CN3CCN(c4ccc(C(=O)NC5CC5)nc4)CC3)cc2[nH]c1=O` [Example 63] were, in that order, 3.2 nM and 9.3 nM.
The matching figures for `CNC(=O)c1ncc(N2CCN(Cc3cnc4cc(C5CC5)c(=O)[nH]c4c3)CC2)cc1F` [Example 100]: 2.6 nM and 3.9 nM.
Regarding `CCc1cc2c(OC)nc(CN3CCN(c4ccc(C(=O)NC)nc4)CC3)cc2[nH]c1=O` [Example 144], the EC50 in experiment [1] came out at 2 nM; in the experiment with DLD-1 BRCA2(−/−), 4.1 nM.
The matching figures for `CCc1cc2ncc(CN3CC(N(C)c4ccc(C(=O)NC)nc4)C3)cc2[nH]c1=O` [Example 26, 5-({1-[(7-ethyl-6-oxo-5H-1,5-naphthyridin-3-yl)methyl]azetidin-3-yl}(methyl)amino)-N-methylpyridine-2-carboxamide]: 39 nM and 33 nM.
The matching figures for `CCc1cc2ncc(CN3CCN(c4ccncc4C#N)CC3)cc2[nH]c1=O` [Example 118]: 0.74 nM and 1.3 nM.
Take `O=C(NC1CC1)c1ccc(N2CCN(Cc3cnc4cc(C5CC5)c(=O)[nH]c4c3)[C@H]3C[C@H]32)cn1` (single isomer, unassigned) [Example 112]: the EC50 in experiment [1] stood at 3.3 nM; in the experiment on DLD-1 BRCA2(−/−) it was 7.8 nM.
As to `CCc1cc2ncc(CN3CCN(c4ccc(C(=O)N[C@H]5C[C@@](C)(O)C5)nc4)CC3)cc2[nH]c1=O` [Example 45], the results for the EC50 (in experiment [1]; with DLD-1 BRCA2(−/−)) were 4.3 nM and 16 nM, respectively.
On to `CNC(=O)c1ccc(N2CCN(Cc3cnc4cc(N5CCC5)c(=O)[nH]c4c3)CC2)cn1` [Example 149], for which the values for the EC50 (in experiment [1]; with DLD-1 BRCA2(−/−)) were 9.4 nM and 17 nM, respectively.
For `CNC(=O)c1ccc(N2CCN(Cc3cnc4c(C)c(C(F)F)c(=O)[nH]c4c3)CC2)cn1` [Example 133], the EC50 came to 0.87 nM in experiment [1] and 1 nM in the experiment with DLD-1 BRCA2(−/−).
The like results for `CNC(=O)c1ccc2c(n1)OC[C@@H]1CN(Cc3cnc4cc(C)c(=O)[nH]c4c3)CCN21` [Example 77] were, in that order, 5.8 nM and 8.5 nM.
The matching figures for `CCc1cc2ncc(CN3CCN(c4cnc(C(=O)NC)c(F)c4)[C@H](C)C3)cc2[nH]c1=O` [Example 39]: 2.7 nM and 3.3 nM.
In the case of `CCc1cc2ncc(CN3CCN(c4ccc(-c5cnc[nH]5)c(F)c4)CC3)cc2[nH]c1=O` [Example 70], the EC50 turned out to be 2.6 nM in experiment [1] and 5.5 nM in the experiment with DLD-1 BRCA2(−/−).
The matching figures for `CCc1cc2ncc(CN3CCN(c4ccc(C(=O)N[C@H]5C[C@@H](C#N)C5)nc4)CC3)cc2[nH]c1=O` [Example 58]: 0.9 nM and 3.5 nM.
In the case of `CNC(=O)c1ccc(N2CCN([C@@H](C)c3cnc4cc(C)c(=O)[nH]c4c3)CC2)cn1` (single isomer, unassigned) [Example 124], the results for the EC50 (in experiment [1]; in the experiment with DLD-1 BRCA2(−/−)) were 17 nM and 7.5 nM, respectively.
The like results for `CNC(=O)c1ccc(N2CCN(Cc3cnc4cc(C5CC(F)(F)C5)c(=O)[nH]c4c3)CC2)cn1` [Example 140] were, in that order, 5.8 nM and 4.3 nM.
With `CCc1cc2ncc(CN3CCN(c4ccc(C(=O)NCC(C)(C)O)nc4)CC3)cc2[nH]c1=O` [Example 52], the figures for the EC50 (in experiment [1]; in the experiment with DLD-1 BRCA2(−/−)) were 4 nM and 12 nM, respectively.
For `[2H]C([2H])([2H])NC(=O)c1ccc(N2CCN(Cc3cnc4cc(C5CC5)c(=O)[nH]c4c3)CC2)cn1` [Example 67], the EC50 was found to be 1.1 nM in experiment [1] and 1.8 nM in the experiment on DLD-1 BRCA2(−/−).
On to `O=C(NC1CC1)c1ccc(N2CCN(Cc3cnc4cc(Cl)c(=O)[nH]c4c3)CC2)c(F)n1` [Example 152], for which the EC50 was found to be 0.51 nM in experiment [1] and 1.1 nM in the experiment on DLD-1 BRCA2(−/−).
Turning to `Cc1cc2ncc(CN3CCN(c4cccnc4C#N)CC3)cc2[nH]c1=O` [Example 131], the EC50 in experiment [1] was found to be 6.2 nM; in the experiment on DLD-1 BRCA2(−/−), 11 nM.
The like results for `O=C(NC1COC1)c1ccc(N2CCN(Cc3cnc4cc(C5CC5)c(=O)[nH]c4c3)CC2)cn1` [Example 81] were, in that order, 4.5 nM and 5.9 nM.
The matching figures for `CNC(=O)c1ccc(N2CCN(Cc3cnc4cc(Cl)c(=O)[nH]c4c3)CC2)cn1` [Example 138, 5-{4-[(7-chloro-6-oxo-5H-1,5-naphthyridin-3-yl)methyl]piperazin-1-yl}-N-methylpyridine-2-carboxamide]: 2.1 nM and 2.7 nM.
As for `CCc1cc2ncc(CN3CCN(c4ccc(C(=O)NC5COC5)nc4)[C@@H]4C[C@@H]43)cc2[nH]c1=O` (single isomer, unassigned) [Example 88], the figures for the EC50 (in experiment [1]; in the experiment on DLD-1 BRCA2(−/−)) were 3.8 nM and 4.2 nM, respectively.
As to `CNC(=O)c1ccc(N2CCN(Cc3cnc4cc(C5CC5)c(=O)[nH]c4c3)CC2)c(C#N)n1` [Example 97], the values for the EC50 (in experiment [1]; in the experiment with DLD-1 BRCA2(−/−)) were 0.71 nM and 1.5 nM, respectively.
The like results for `CNC(=O)c1ccc(N2CCN(Cc3cnc4cc(C5CCC5)c(=O)[nH]c4c3)CC2)cn1` [Example 104] were, in that order, 1.4 nM and 1.4 nM.
The like results for `CCc1cc2ncc(CN3CCN(c4ccc(C(=O)NC[C@@H](C)OC)nc4)CC3)cc2[nH]c1=O` [Example 60] were, in that order, 5 nM and 14 nM.
The matching figures for `Cc1cc2ncc(CN3CCN(c4ccc(C(=O)NC5COC5)c(F)c4)CC3)cc2[nH]c1=O` [Example 80]: 9.8 nM and 37 nM.
`CNC(=O)c1ccc(N2CCN(Cc3cnc4c(C)c(C)c(=O)[nH]c4c3)CC2)cn1` [Example 95]: the figures for the EC50 (in experiment [1]; with DLD-1 BRCA2(−/−)) were 2.9 nM and 3.9 nM, respectively.
The like results for `CNC(=O)c1ccc(N2CCN(Cc3cnc4cc(C5CC5)c(=O)[nH]c4c3)C[C@H]2C)cn1` [Example 74] were, in that order, 3.9 nM and 7.8 nM.
The matching figures for `CCc1cc2ncc(CN3CCN(c4ccc(C(=O)N[C@H]5C[C@](C)(O)C5)nc4)CC3)cc2[nH]c1=O` [Example 55]: 1.4 nM and 11 nM.
The like results for `CNC(=O)c1ncc(N2CCN(Cc3ccc4c5c(c(=O)[nH]c4c3)CCO5)CC2)cc1F` [Example 71] were, in that order, 5.9 nM and 13 nM.
For the compound `CCc1cc2ncc(CN3CCN(c4ccc(C(=O)NCCC#N)nc4)CC3)cc2[nH]c1=O` [Example 50], the values for the EC50 (in experiment [1]; with DLD-1 BRCA2(−/−)) were 2.1 nM and 4.5 nM, respectively.
The matching figures for `CCc1cc2ncc(CN3CCN(c4ccc(C(=O)NC)c(F)c4C#N)CC3)cc2[nH]c1=O` [Example 145]: 1.1 nM and 1.9 nM.
The like results for `CNC(=O)c1ccc(N2CCN(Cc3cnc4c5c(c(=O)[nH]c4c3)CCC5)CC2)cn1` [Example 84] were, in that order, 2 nM and 2.2 nM.
On to `CCc1cc2ncc(CN3CCN(c4ccc(C(=O)N[C@H]5CCCOC5)nc4)CC3)cc2[nH]c1=O` (single isomer, unassigned) [Example 53], for which the EC50 in experiment [1] came out at 0.92 nM; with DLD-1 BRCA2(−/−), 2.4 nM.
The matching figures for `CCc1cc2ncc(CN3CCN(c4ccc(C(=O)NC5CCOCC5)nc4)CC3)cc2[nH]c1=O` [Example 44]: 5.3 nM and 7.4 nM.
The like results for `O=C(NC1CC1)c1ccc(N2CCN(Cc3cnc4c(c3)[nH]c(=O)c3ccoc34)CC2)cn1` [Example 142] were, in that order, 4 nM and 8.7 nM.
The compound `CCc1cc2ncc([C@@H](C)N3CCN(c4ccc(C(=O)NC)nc4)CC3)cc2[nH]c1=O` (single isomer, unassigned) [Example 20] showed an EC50 in the experiment with DLD-1 BRCA2(−/−) of 4.1 nM.
